Where two headings read alike, the source gives them in different places.
Legend:
[1] = biological target: NA of A/Illinois/45/2019 A(H1N1)pdm09 (Influenza A virus, UniProt A0A0X9QTS2); type: biochemical; conditions: read-out: Mean IC50 ± SD
[2] = test system: A/Illinois/08/2018 A(H1N1)pdm09; assay: microbe, parasite or virus in culture; type: cell-based, influenza A(H1N1)pdm09 virus; conditions: Influenza A virus, H1N1, read-out: Mean EC50 ± SD
[3] = test system: A/fox/Wisconsin/22-014746-030/2022; assay: microbe, parasite or virus in culture; type: cell-based, influenza A(H5N1) virus; conditions: Influenza A virus, read-out: Mean EC50 ± SD
[4] = test system: A/Illinois/08/2018 A(H1N1)pdm09; type: cell-based, influenza A(H1N1)pdm09 virus; conditions: read-out: Mean EC50 ± SD
[5] = test system: A/Louisiana/50/2017 A(H3N2); assay: microbe, parasite or virus in culture; type: cell-based; conditions: Influenza A virus, H3N2, read-out: Mean EC50 ± SD
[6] = test system: A/bald eagle/Florida/22-006544-004/2022; assay: microbe, parasite or virus in culture; type: cell-based, influenza A(H5N1) virus; conditions: Influenza A virus, read-out: Mean EC50 ± SD
[7] = test system: A/black vulture/Florida/22-012331-001/2022; assay: microbe, parasite or virus in culture; type: cell-based, influenza A(H5N1) virus; conditions: Influenza A virus, read-out: Mean EC50 ± SD
[8] = biological target: NA of A/Canada goose/Wyoming/22-011671-001/2022 (Influenza A virus, UniProt Q9Q0U7); type: biochemical, influenza A(H5N1) virus; conditions: read-out: Mean IC50 ± SD
[9] = biological target: NA of A/black vulture/Florida/22-012333-001/2022 (N/S295, T/N438, mixed population) (Influenza A virus (H5N1), UniProt Q9Q0U7); type: biochemical; conditions: read-out: Mean IC50 ± SD
[10] = biological target: NA of A/fox/Michigan/22-014536-004/2022 (del50-70) (Influenza A virus, UniProt Q9Q0U7); type: biochemical, influenza A(H5N1) virus; conditions: read-out: Mean IC50 ± SD
[11] = biological target: NA of A/Cooper's hawk/Minnesota/22-012931-001/2022 (Influenza A virus, UniProt Q9Q0U7); type: biochemical, influenza A(H5N1) virus; conditions: read-out: Mean IC50 ± SD
[12] = biological target: NA of A/fox/Wisconsin/22-013774-002/2022 (Influenza A virus, UniProt Q9Q0U7); type: biochemical; conditions: read-out: Mean IC50 ± SD
[13] = biological target: NA of A/turkey/Iowa/22-012098-001/2022 (Influenza A virus, UniProt Q9Q0U7); type: biochemical; conditions: read-out: Mean IC50 ± SD
[14] = biological target: NA of A/red-shouldered hawk/Minnesota/22-012000-004/2022 (Influenza A virus, UniProt Q9Q0U7); type: biochemical; conditions: read-out: Mean IC50 ± SD
[15] = biological target: NA of A/bald eagle/Florida/22-006544-004/2022 (Influenza A virus, UniProt Q9Q0U7); type: biochemical; conditions: read-out: Mean IC50 ± SD
[16] = biological target: NA of A/black vulture/Maryland/22-012407-001/2022 (Influenza A virus (H5N1), UniProt Q9Q0U7); type: biochemical; conditions: read-out: Mean IC50 ± SD

Compound	IC50 [1] [nM]	EC50 [2] [nM]	EC50 [3] [nM]	EC50 [4] [nM]	EC50 [5] [nM]	EC50 [6] [nM]	EC50 [7] [nM]	IC50 [8] [nM]	IC50 [9] [nM]	IC50 [10] [nM]	IC50 [11] [nM]	IC50 [12] [nM]	IC50 [13] [nM]	IC50 [14] [nM]	IC50 [15] [nM]	IC50 [16] [nM]
oseltamivir carboxylate	0.17 ± 0.03	–	–	–	–	–	–	–	–	–	–	–	–	–	–	–
O=C1c2c(O)c(=O)ccn2N([C@@H]2c3ccccc3SCc3c2ccc(F)c3F)[C@@H]2COCCN12 [Baloxavir, baloxavir acid]	–	1.65 ± 0.44	0.32	1.12 ± 0.32	1.04 ± 0.43	0.41	0.44	–	–	–	–	–	–	–	–	–
peramivir	0.06 ± 0.01	–	–	–	–	–	–	0.08	0.55	0.1	0.1	0.09	0.1	0.09	0.08	0.1
